These results are taken from US7423017B2, “Method for treating cartilage disorders” (Genentech, Inc., priority 1997, dated 2008).

Experiment [1] relates to IGFBP-1. Put plainly: competitive phage ELISA of IGF-1 mutants, IGFBP-1. In kind it is binding, human. The note with it: relative IC50 IGFBP-1/relative IC50 IGFBP-3. A digest of the protocol: (§1)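 Alanine-scan IGF-1 mutants on phage competed with soluble IGFBP-1 or IGFBP-3 (threefold dilutions over six logs, from 5 μM and 500 nM respectively) for binding to plates coated with 1 μg/ml of the same protein in PBS pH 7.2. Incubation was 1 h at room temperature in 0.5% Tween 20/PBS. Bound phage was detected by anti-phage/HRP ELISA; IC50 is the mean±SD of at least two clones.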
(In an ELISA, binding on a coated surface is turned into a signal by an enzyme label.)

Experiment [2] addresses T1, IGFBP-3 (Homo sapiens, UniProt P17936).
T1 construct: made in house
The experiment can be described thus: competitive phage ELISA of IGF-1 mutants, IGFBP-3. In kind it is binding. The following applies: phage display, soluble IGFBP-3 competitor. A digest of the protocol:
as §1

Experiment [3] has as its target T2, IGFBP-1 (Homo sapiens, UniProt P08833).
T2 sequence (P08833 26-259): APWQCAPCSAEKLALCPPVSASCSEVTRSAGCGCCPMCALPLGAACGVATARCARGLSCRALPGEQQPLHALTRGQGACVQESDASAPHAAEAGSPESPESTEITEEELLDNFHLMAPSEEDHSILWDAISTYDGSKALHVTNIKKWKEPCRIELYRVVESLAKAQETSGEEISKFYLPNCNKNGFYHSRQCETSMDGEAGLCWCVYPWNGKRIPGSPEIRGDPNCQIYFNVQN
The following applies: cited from earlier work.

The target in experiment [4] is T2, IGFBP-1. Put plainly: competitive phage ELISA of IGF-1 mutants, IGFBP-1. The following applies: phage display, soluble IGFBP-1 competitor. Further details: made in house; host or cells: CHO cells. The format is binding. A digest of the protocol: as §1
The target of experiment [5] is T2, IGFBP-1. The experiment can be described thus: biotinylated-IGFBP-1 ELISA plate assay of IGF-I:IGFBP-1 inhibition. The format is binding. Further details: made in house; host or cells: CHO cells. From the text:
A second series of peptides made use of non-natural amino acids to probe whether other structural features such as an added methyl group at the alpha carbon, or an isomer (D-alanine) could affect peptide binding to IGFBP-1.
BP1-16 (SEQ ID NO:35), a 13-residue version of BP1-01 (lacking the C-terminal Gly), had similar affinity to that of BP1-01. Substitutions at the N-terminus or C-terminus yielded affinity improvements.

In experiment [6] the test system is human articular cartilage explants. Put plainly: human articular cartilage explants from diseased joints: matrix synthesis (35S-sulfate uptake). The following applies: IGF-1 40 ng/ml; peptide 0.1 mg/ml. In kind it is cell-based.
Experiment [7] deals with T2, IGFBP-1. The experiment can be described thus: KIRA cell-based assay of IGF-like activity displaced by peptides from IGF-1/IGFBP-1. The note with it: 2 nM IGF-1, […] IGFBP-1. On the procedure: A cell-based (KIRA) assay was previously described for measuring the amount of IGF-like activity displaced by peptides from mixtures of IGF-1 and binding proteins (Lowman et al., supra, 1998; WO 98/45427, supra). The KIRA assay was used to compare in vitro bioactivity of BP1-16, BP1-02, BP1-25, and BP1-40. […] IGF-1 and peptide were mixed and added to cells expressing IGF receptor for 30 min, then IGFBP-1 was added for an additional 1 h.

The target of experiment [8] is IGFBP-3. Put plainly: displacement of 125I-IGF-1 from IGFBPs in human serum, size-exclusion chromatography. The format is binding. The note with it: peptide at 0.2 mM. As for the experimental part: This Example tests an IGFBP-3-specific peptide, BP3-15, for its ability to block the binding of ^125I-IGF-1 in human serum. Human serum was incubated with ^125I-IGF-1 ± the peptide and the amount of tracer bound to IGFBPs via size-exclusion chromatography was measured.
(In a radioligand displacement assay an active substance lowers the binding of a labelled ligand.)

Experiment [9] has as its target T1, IGFBP-3. Put plainly: BIACORE competition assay: IGFBP-3 binding to immobilized IGF-1. The note with it: IGF-1 inhibition; wt = BP3-01-ox. A general note: SPR reads the build-up and loss of mass on a sensor chip optically.
For experiment [10], the system named is human articular cartilage explants. The experiment can be described thus: human articular cartilage explants: matrix breakdown (proteoglycan release). The note with it: peptide 0.1 mg/ml. The format is cell-based. As for the experimental part:
The metacarpophalangeal joint of a six-month old pig was cultured as described above for bovine articular cartilage in Example 8. This explant was cultured in media alone or in media with D12K, D12R, or wild-type IGF-1 (at 10 nM) alone or in the presence of IL-1α at 1 ng/ml, as described above. Human explants were from patients undergoing joint replacement surgery. Articular cartilage was harvested, aliquoted (40-45 mg/tube) and cultured as above. […] Fresh media was added on days 0, 1, 2, and 3. Matrix breakdown was determined by measuring the amount of proteoglycans in the media using the DMMB assay as set forth above. Matrix (proteoglycan) synthesis was determined by measuring ^35S-sulfate uptake as set forth above.
Human articular cartilage explants were cultured in media or treated with IGF-1 by itself or in combination with either BP3-40 or BP3-15 at 0.1 mg/ml as set forth above. Matrix breakdown was determined by measuring the release of proteoglycans into media as described above. Matrix synthesis was determined by counting the amount of ^35S-sulfate incorporated into the cartilage tissue as described above.

“Also recorded” adds a separate entry of the source. Positions of bridges follow the written chain, without caps; N, C: chain ends. Residues, ends and D or L forms follow the SMILES beside them. No end group written: not given here.

T1 sequence (P17936 28-291): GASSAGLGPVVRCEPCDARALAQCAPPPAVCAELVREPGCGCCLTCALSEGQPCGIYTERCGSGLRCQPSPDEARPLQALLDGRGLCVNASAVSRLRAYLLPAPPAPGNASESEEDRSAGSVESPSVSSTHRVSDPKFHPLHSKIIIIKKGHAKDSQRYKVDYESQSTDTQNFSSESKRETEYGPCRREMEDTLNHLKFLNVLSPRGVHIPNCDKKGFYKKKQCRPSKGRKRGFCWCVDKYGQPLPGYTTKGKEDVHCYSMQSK

For R50A: IGF-1 single alanine mutant, the relative specificity in the experiment with IGFBP-1 [1] came out at 2.3. For the same compound, the 50% inhibitory concentration (IC50) – broadly, the concentration at which inhibition is half-maximal – is 0.00064 ± 0.00018 µM with IGFBP-3 [2] and 0.0162 ± 0.0018 µM with IGFBP-1 [4]. Moreover, in the experiment with IGFBP-1 [3], the “decrease in affinity for IGFBP-1” value is listed as 3 fold.
Take CRAGPLQHLCEKYF [BP1-24]: the “Fold potency reduction IC50 (mut) / IC50 (BP1-16)” value in the experiment with IGFBP-1 [5] is on record as below 10.
With “CRAGPLQWLCEKYF-nh2 (CRAGPLQWLCEKYF-NH2; disulfide 1-10 (inferred)) [BP1-16]”, the “Fold potency reduction IC50 (mut) / IC50 (BP1-16)” value with IGFBP-1 [5] is on record as -1-. The “matrix synthesis, IGF-1 in combination with peptide” value in experiment [6] is listed as “enhance anabolism”. In the experiment with IGFBP-1 [7], the “EC20 (concentration at which 20% of maximal IGF-1 activity is observed)” value fell in the range of 0.15 to 0.2 µM.
Turning to `CC(C)C[C@@H]1NC(=O)[C@H](Cc2ccc(O)cc2)NC(=O)[C@H](Cc2c[nH]c3ccccc23)NC(=O)[C@H](CCC(=O)O)NC(=O)[C@H](C)NC(=O)[C@H](C(C)C)NC(=O)[C@@H]2CCCN2C(=O)[C@H](Cc2c[nH]c3ccccc23)NC(=O)[C@@H](NC(=O)[C@@H](NC(=O)[C@H](CCC(=O)O)NC(=O)[C@H](CCC(=O)O)NC(=O)[C@@H](N)CO)C(C)C)CSSC[C@@H](C(=O)N[C@@H](CC(N)=O)C(=O)O)NC1=O` [BP3-15] (H-SEEVCWPVAEWYLCN-OH; disulfide 5-14; N-terminus and C-terminus assumed), on IGFBP-3 [8], the “125I-IGF-1 binding to the 44-KD IGFBPs” value is reported as “did not decrease”, the “decrease in 125I-IGF-1 associated with the 150-KD IGF/IGFBP-3/ALS complex” value is recorded as around 42% and the “increase in the amount of free 125I-IGF-1” value was determined as 59%. Also, at IGFBP-3 [9], the “IC50 (mut) / IC50 (wt)” value is given as 0.36. Besides, the “matrix breakdown, IGF-1 in combination with peptide” value in experiment [10] is “appeared to enhance the ability of IGF-1 to decrease matrix breakdown”. Further, the “matrix synthesis, IGF-1 in combination with peptide” value in experiment [6] was “to stimulate matrix synthesis; also recorded: enhance anabolism”.
